Patent US9452225B2, “GLP-1 prodrugs” (Novo Nordisk A/S, priority 2012, dated 2016)
Numbered stars: 1 amine (or outer) side, 2 acyl side, 3 side chain; on linkers, the order of the positions; unused ones are H or OH. Square brackets hold non-standard residues; d marks the D form. Side chains are listed from the residue outwards. Peptide text beside a SMILES is read from it. * marks the point of attachment. Decanoyl(10-(4-HOOC-PhO)) = O=C(O)c1ccc(OCCCCCCCCCC(=O)*)cc1; Lac(3-(imidazol-4-yl)) = O=C(O)[C@@H](O)Cc1c[nH]cn1; γGlu = O=C(O)[C@H](CCC(=O)[*:2])N[*:1]; AEEA = NCCOCCOCC(=O)O; Glycolyl = O=C(CO)*

Assay: Prodrug half-life in vitro, buffer method
Type: physicochemical
Details: 25 mM phosphate buffer pH 7.4, 37° C., 1.0 mg/mL; UPLC_A, or UPLC_B for compounds marked *; read-out: T½ in buffer (converted)
Description: The purpose of this example is to test the in vitro half-lives (T½) of the GLP-1 prodrugs of the invention, in comparison to conceptually different prodrugs. In what follows two in vitro methods are described, viz. a method conducted in buffer, and a method conducted in plasma.
Buffer: 25 mM Phosphate (Ionic strength: 154 mM, pH 7.4 at 37° C.)
NaH2PO4.2H2O (1.95 g, 12.5 mmol) and NaCl (2.61 g, 44.7 mmol) were dissolved in millipore water (approximately 450 mL) and adjusted to pH=7.44 at approximately 20° C. with concentrated NaOH and 1 M NaOH. Water was added to 500.00 mL.
The compound to be tested was dissolved in buffer to a concentration of 1.0 mg/mL and incubated at 37° C. Samples were taken at adequate intervals and the % parent drug compared to prodrug formed as function of time was evaluated by the UPLC method as referred to in Table 1 by comparing the areas under the curves for the two corresponding peaks. These UPLC methods are described in the general experimental section above (UPLC_A, and UPLC_B).
The half life of the prodrug (T½) was calculated from the slope of a linear fit to the curve of ln(% prodrug (Y)) as a function of time (t), as follows: Y=÷αt+k Math. 1 T½=ln(2)/α Math. 2 Plasma Method Buffer: 200 mM Phosphate, pH 7.4 at 37° C.
The resulting half-lives are set out in Table 1 below. For comparison, the T½ in buffer of native GLP-1(7-37) (His7 variant of SEQ ID NO: 1) was 13 minutes (0.2 hours).

Compound | half-life at 1 mg/mL [h]
CC[C@H](C)[C@H](NC(=O)[C@H](Cc1ccccc1)NC(=O)[C@H](CCC(=O)O)NC(=O)[C@H](CCCNC(=N)N)NC(=O)[C@@H](NC(=O)[C@H](C)NC(=O)[C@H](CCC(N)=O)NC(=O)[C@H](CCC(=O)O)NC(=O)[C@H](CCC(=O)O)NC(=O)[C@H](CC(C)C)NC(=O)[C@H](Cc1ccc(O)cc1)NC(=O)[C@H](CCCCNC(=O)COCCOCCNC(=O)COCCOCCNC(=O)CC[C@H](NC(=O)CCCCCCCCCOc1ccc(C(=O)O)cc1)C(=O)O)NC(=O)[C@H](CO)NC(=O)[C@@H](NC(=O)[C@H](CC(=O)O)NC(=O)[C@H](CO)NC(=O)[C@@H](NC(=O)[C@H](Cc1ccccc1)NC(=O)[C@@H](NC(=O)CNC(=O)[C@H](CCC(=O)O)NC(=O)[C@H](C)NC(=O)[C@H](Cc1c[nH]cn1)OC(=O)[C@@H](NC(=O)CN)C(C)C)[C@@H](C)O)[C@@H](C)O)C(C)C)C(C)C)C(=O)N[C@@H](C)C(=O)N[C@@H](CCCCNC(=O)COCCOCCNC(=O)COCCOCCNC(=O)CC[C@H](NC(=O)CCCCCCCCCOc1ccc(C(=O)O)cc1)C(=O)O)C(=O)N[C@@H](CC(C)C)C(=O)N[C@H](C(=O)N[C@@H](CCCNC(=N)N)C(=O)NCC(=O)N[C@@H](CCCNC(=N)N)C(=O)NCC(=O)O)C(C)C [Example 1a] (H-GV[Lac(3-(imidazol-4-yl))]AEGTFTSDVSK([AEEA-AEEA-γGlu-Decanoyl(10-(4-HOOC-PhO))])YLEEQAVREFIAK([AEEA-AEEA-γGlu-Decanoyl(10-(4-HOOC-PhO))])LVRGRG-OH) | 1.5
CC[C@H](C)[C@H](NC(=O)[C@H](Cc1ccccc1)NC(=O)[C@H](CCC(=O)O)NC(=O)[C@H](CCCNC(=N)N)NC(=O)[C@@H](NC(=O)[C@H](C)NC(=O)[C@H](CCC(N)=O)NC(=O)[C@H](CCC(=O)O)NC(=O)[C@H](CCC(=O)O)NC(=O)[C@H](CC(C)C)NC(=O)[C@H](Cc1ccc(O)cc1)NC(=O)[C@H](CCCCNC(=O)COCCOCCNC(=O)COCCOCCNC(=O)CC[C@H](NC(=O)CCCCCCCCCOc1ccc(C(=O)O)cc1)C(=O)O)NC(=O)[C@H](CO)NC(=O)[C@@H](NC(=O)[C@H](CC(=O)O)NC(=O)[C@H](CO)NC(=O)[C@@H](NC(=O)[C@H](Cc1ccccc1)NC(=O)[C@@H](NC(=O)CNC(=O)[C@H](CCC(=O)O)NC(=O)[C@H](C)NC(=O)[C@H](Cc1c[nH]cn1)OC(=O)[C@@H](NC(=O)CO)C(C)C)[C@@H](C)O)[C@@H](C)O)C(C)C)C(C)C)C(=O)N[C@@H](C)C(=O)N[C@@H](CCCCNC(=O)COCCOCCNC(=O)COCCOCCNC(=O)CC[C@H](NC(=O)CCCCCCCCCOc1ccc(C(=O)O)cc1)C(=O)O)C(=O)N[C@@H](CC(C)C)C(=O)N[C@H](C(=O)N[C@@H](CCCNC(=N)N)C(=O)NCC(=O)N[C@@H](CCCNC(=N)N)C(=O)NCC(=O)O)C(C)C [Example 1b] (Glycolyl-V[Lac(3-(imidazol-4-yl))]AEGTFTSDVSK([AEEA-AEEA-γGlu-Decanoyl(10-(4-HOOC-PhO))])YLEEQAVREFIAK([AEEA-AEEA-γGlu-Decanoyl(10-(4-HOOC-PhO))])LVRGRG-OH) | 0.65
